pKd: −log10 of the molar value.
Target: T1, peroxisome proliferator-activated receptor-γ (PPARγ) (Homo sapiens, UniProt P37231)
T1 sequence (P37231 223-505 limits assumed): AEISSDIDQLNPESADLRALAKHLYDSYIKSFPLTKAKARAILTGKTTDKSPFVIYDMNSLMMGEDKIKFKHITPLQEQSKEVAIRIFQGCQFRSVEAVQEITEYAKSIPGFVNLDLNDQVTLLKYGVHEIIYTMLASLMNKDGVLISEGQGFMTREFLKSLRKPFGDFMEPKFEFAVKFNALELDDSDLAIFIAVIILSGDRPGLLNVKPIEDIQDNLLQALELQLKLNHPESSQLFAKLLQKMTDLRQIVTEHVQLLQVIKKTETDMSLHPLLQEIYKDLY
Assay: SPR
Format: binding

In the case of `CC(C)/N=c1\cc2n(-c3ccc(Cl)cc3)c3ccccc3nc-2cc1Nc1ccc(Cl)cc1` [CFZ, clofazimine], the pKd was 7.10.

Reference: paper PMC7109729 (Haematologica, 2020)
